Experimental data taken from patent US8088806B2 (Achillion Pharmaceuticals, Inc., priority 2005, dated 2012).

Test system: HCV replicon
Assay: Replicon based assay of HCV replication inhibition (NPT ELISA)
Assay type: cell-based, Hepatitis C virus
Conditions: Hepatitis C virus, replicon based assay of HCV replication inhibition; Table IV; read-out: Activity
Procedure, shortened: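 NPT (neomycin phosphotransferase) content, proportional to replicon replication, quantified by capture ELISA on day four. Before that, replicon-bearing Huh-7 cells in G418-free screening medium were exposed three days at 37° C to compound, typically six doses from 10 to 0.03 micromolar, with equal DMSO across wells.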

SMILES	EC50 [µM]
Cc1ccc(CCCCOc2ccc(Nc3nc(-c4cccnc4)cs3)cc2C(F)(F)F)cc1 [compound 805, N-(4-(4-p-tolylbutoxy)-3-(trifluoromethyl)phenyl)-4-(pyridin-3-yl)thiazol-2-amine]	1 to 10
Fc1ccc(-c2csc(Nc3ccc(OCCCc4cccnc4)c(C(F)(F)F)c3)n2)cc1 [compound 806, N-(4-(3-(pyridin-3-yl)propoxy)-3-(trifluoromethyl)phenyl)-4-(4-fluorophenyl)thiazol-2-amine]	1 to 10
CCCCCCCCOc1ccc(Nc2nc(-c3csc4nccn34)cs2)cc1C(F)(F)F [compound 807, N-(3-(trifluoromethyl)-4-(octyloxy)phenyl)-4-(imidazo[2,1-b]thiazol-3-yl)thiazol-2-amine]	< 1
CCCCCCCCOc1ccc(Nc2nc(C(=O)CSC3=NC(=O)CC(=O)N3)cs2)cc1C(F)(F)F [compound 808, 2-(2-(2-(3-(trifluoromethyl)-4-(octyloxy)phenylamino)thiazol-4-yl)-2-oxoethylthio)pyrimidine-4,6(1H,5H)-dione]	< 1
CCCCCCCCOc1ccc(Nc2nc(-c3c[nH]nc3C#N)cs2)cc1C(F)(F)F [compound 809, 4-(2-(3-(trifluoromethyl)-4-(octyloxy)phenylamino)thiazol-4-yl)-1H-pyrazole-3-carbonitrile]	< 1
CCCCCCCCOc1ccc(Nc2nc(-c3cnc(N)nc3)cs2)cc1C(F)(F)F [compound 810, 5-(2-(3-(trifluoromethyl)-4-(octyloxy)phenylamino)thiazol-4-yl)pyrimidin-2-amine]	< 1
CCCCCCCCOc1ccc(Nc2nc(-c3cnc[nH]3)cs2)cc1C(F)(F)F [compound 811, N-(3-(trifluoromethyl)-4-(octyloxy)phenyl)-4-(1H-imidazol-5-yl)thiazol-2-amine]	< 1
CCCCCCCCOc1ccc(Nc2nc(-c3ccsc3Cl)cs2)cc1C(F)(F)F [compound 812, 4-(2-chlorothiophen-3-yl)-N-(3-(trifluoromethyl)-4-(octyloxy)phenyl)thiazol-2-amine]	< 1
CCCCCCCCOc1ccc(Nc2nc(-c3cccnc3C#N)cs2)cc1C(F)(F)F [compound 813, 3-(2-(3-(trifluoromethyl)-4-(octyloxy)phenylamino)thiazol-4-yl)pyridine-2-carbonitrile]	< 1
CCCCCCCCOc1ccc(Nc2nc(-c3cccnc3C(N)=O)cs2)cc1C(F)(F)F [compound 814, 3-(2-(3-(trifluoromethyl)-4-(octyloxy)phenylamino)thiazol-4-yl)pyridine-2-carboxamide]	1 to 10
c1cncc(-c2csc(Nc3nc(-c4ccc5ccccc5c4)cs3)n2)c1 [compound 815, 4-(naphthalen-2-yl)-N-(4-(pyridin-3-yl)thiazol-2-yl)thiazol-2-amine]	1 to 10
COc1ccc(Nc2nc(-c3cccnc3)cs2)cc1S(=O)(=O)Nc1ccc(Cl)cc1 [compound 818]	> 10
CCN(CC)S(=O)(=O)c1cc(Nc2nc(-c3cccnc3)cs2)ccc1Cl [compound 819]	> 10
CCN(CC)C(=O)c1ccc(Nc2nc(-c3cccnc3)cs2)cc1 [compound 820, 4-(4-(pyridin-3-yl)thiazol-2-ylamino)-N,N-diethylbenzamide]	> 10
CN(C)C(=O)c1ccc(Nc2nc(-c3cccnc3)cs2)cc1 [compound 821, 4-(4-(pyridin-3-yl)thiazol-2-ylamino)-N,N-dimethylbenzamide]	> 10
CCCCCCC=Cc1ccc(Nc2nc(-c3cccnc3)cs2)cc1C(F)(F)F [compound 822, N-(3-(trifluoromethyl)-4-(oct-1-enyl)phenyl)-4-(pyridin-3-yl)thiazol-2-amine]	< 1
CCCCCCCOc1ccc(Nc2nc(-c3cccnc3)cs2)cc1C(F)(F)F [compound 823, N-(3-(trifluoromethyl)-4-(heptyloxy)phenyl)-4-(pyridin-3-yl)thiazol-2-amine]	< 1
CC(C)CCCOc1ccc(Nc2nc(-c3cccnc3)cs2)cc1C(F)(F)F [compound 824, N-(4-(4-methylpentyloxy)-3-(trifluoromethyl)phenyl)-4-(pyridin-3-yl)thiazol-2-amine]	< 1
CCCCCCCCc1ccc(Nc2nc(-c3cccnc3)cs2)cc1C(F)(F)F [compound 825, N-(3-(trifluoromethyl)-4-octylphenyl)-4-(pyridin-3-yl)thiazol-2-amine]	< 1
CCCCCCCCc1ccc(Nc2nc(-c3cnc(OC)nc3)cs2)cc1C(F)(F)F [compound 826, N-(3-(trifluoromethyl)-4-octylphenyl)-4-(2-methoxypyrimidin-5-yl)thiazol-2-amine]	< 1
CC(C)=CCC/C(C)=C/COc1ccc(Nc2nc(-c3ccc(F)cc3)cs2)cc1C(F)(F)F [compound 827, N-(4-((E)-3,7-dimethylocta-2,6-dienyloxy)-3-(trifluoromethyl)phenyl)-4-(4-fluorophenyl)thiazol-2-amine]	> 10

SMILES	EC50 [µM]
COc1ncc(-c2csc(Nc3ccc(OCCCCc4ccccc4)c(C(F)(F)F)c3)n2)cn1 [compound 828, N-(4-(4-phenylbutoxy)-3-(trifluoromethyl)phenyl)-4-(2-methoxypyrimidin-5-yl)thiazol-2-amine]	< 1
COc1ncc(-c2csc(Nc3ccc(OCCCCc4ccc(C)cc4)c(C(F)(F)F)c3)n2)cn1 [compound 829, N-(4-(4-p-tolylbutoxy)-3-(trifluoromethyl)phenyl)-4-(2-methoxypyrimidin-5-yl)thiazol-2-amine]	< 1
COc1ncc(-c2csc(Nc3ccc(OCCCc4cccnc4)c(C(F)(F)F)c3)n2)cn1 [compound 830, N-(4-(3-(pyridin-3-yl)propoxy)-3-(trifluoromethyl)phenyl)-4-(2-methoxypyrimidin-5-yl)thiazol-2-amine]	1 to 10
COc1ncc(-c2csc(Nc3ccc(OCCCc4ccccc4)c(C(F)(F)F)c3)n2)cn1 [compound 831, N-(4-(3-phenylpropoxy)-3-(trifluoromethyl)phenyl)-4-(2-methoxypyrimidin-5-yl)thiazol-2-amine]	< 1
CCCCCOc1ccc2nc(NC(=O)c3cccnc3)sc2c1 [compound 832, N-(6-(pentyloxy)benzo[d]thiazol-2-yl)nicotinamide]	> 10
CCCCCCCN(C)Cc1ccc(Nc2nc(-c3cccnc3)cs2)cc1C(F)(F)F [compound 833, N-(4-((heptyl(methyl)amino)methyl)-3-(trifluoromethyl)phenyl)-4-(pyridin-3-yl)thiazol-2-amine]	< 1
c1cncc(-c2csc(Nc3nc(CN4CCCCC4)cs3)n2)c1 [compound 834, 4-((piperidin-1-yl)methyl)-N-(4-(pyridin-3-yl)thiazol-2-yl)thiazol-2-amine]	> 10
CCCCCCCCOc1ccc(Nc2nc(-c3cccnc3)c(C)s2)cc1C(F)(F)F [compound 836, N-(3-(trifluoromethyl)-4-(octyloxy)phenyl)-5-methyl-4-(pyridin-3-yl)thiazol-2-amine]	< 1
Cc1sc(Nc2ccc(OCCCC3CCCC3)c(C(F)(F)F)c2)nc1-c1cccnc1 [compound 837, N-(4-(3-cyclopentylpropoxy)-3-(trifluoromethyl)phenyl)-5-methyl-4-(pyridin-3-yl)thiazol-2-amine]	< 1
Cc1sc(Nc2ccc(OCCCCc3ccccc3)c(C(F)(F)F)c2)nc1-c1cccnc1 [compound 838, N-(4-(4-phenylbutoxy)-3-(trifluoromethyl)phenyl)-5-methyl-4-(pyridin-3-yl)thiazol-2-amine]	< 1
Cc1sc(Nc2ccc(OCCCc3ccccc3)c(C(F)(F)F)c2)nc1-c1cccnc1 [compound 839, N-(4-(3-phenylpropoxy)-3-(trifluoromethyl)phenyl)-5-methyl-4-(pyridin-3-yl)thiazo1-2-amine]	< 1
CCCCCCCCOc1ccc(Nc2nc(-c3cnc(O)nc3)cs2)cc1C(F)(F)F [compound 840, 5-(2-(3-(trifluoromethyl)-4-(octyloxy)phenylamino)thiazol-4-yl)pyrimidin-2-ol]	< 1
CCCCCCCCOc1ccc(Nc2nc(-c3ccc(OC)nn3)cs2)cc1C(F)(F)F [compound 841, N-(3-(trifluoromethyl)-4-(octyloxy)phenyl)-4-(6-methoxypyridazin-3-yl)thiazol-2-amine]	< 1
CCCCCCCCOc1ccc(Nc2nc(-c3cnc(Cl)c(C)c3)cs2)cc1C(F)(F)F [compound 842, 4-(6-chloro-5-methylpyridin-3-yl)-N-(3-(trifluoromethyl)-4-(octyloxy)phenyl)thiazol-2-amine]	< 1
CCCCCCCCOc1ccc(Nc2nc(-c3ccc(CNC(=O)OC(C)(C)C)nc3)cs2)cc1C(F)(F)F [compound 843, tert-butyl (5-(2-(3-(trifluoromethyl)-4-(octyloxy)phenylamino)thiazol-4-yl)pyridin-2-yl)methylcarbamate]	< 1
CCCCCCCCOc1ccc(Nc2nc(-c3ccc(CN)nc3)cs2)cc1C(F)(F)F [compound 844, 4-(6-(aminomethyl)pyridin-3-yl)-N-(3-(trifluoromethyl)-4-(octyloxy)phenyl)thiazol-2-amine]	< 1
Cc1ccc(CCCCOc2ccc(Nc3nc(-c4cccnc4)c(C)s3)cc2C(F)(F)F)cc1 [compound 845, N-(4-(4-p-tolylbutoxy)-3-(trifluoromethyl)phenyl)-5-methyl-4-(pyridin-3-yl)thiazol-2-amine]	< 1
Cc1sc(Nc2ccc(OCCCc3cccnc3)c(C(F)(F)F)c2)nc1-c1cccnc1 [compound 846, N-(4-(3-(pyridin-3-yl)propoxy)-3-(trifluoromethyl)phenyl)-5-methyl-4-(pyridin-3-yl)thiazol-2-amine]	> 10
CCN(CCOc1ccc(Nc2nc(-c3cccnc3)cs2)cc1C(F)(F)F)c1ccccc1 [compound 847]	< 1
FC(F)(F)c1cc(Nc2nc(-c3cccnc3)cs2)ccc1OCCOc1ccccc1 [compound 848, N-(4-(2-phenoxyethoxy)-3-(trifluoromethyl)phenyl)-4-(pyridin-3-yl)thiazol-2-amine]	< 1
